SMILES strings stand for the structures. Numbers after ± are expanded uncertainties.

In the NIST ThermoML archive (doi:10.1016/j.fluid.2009.08.017) one finds activity coefficient data, which are given here for 20 molecules.

A short description of the data set: activity coefficient (dimensionless); of the first substance listed, at infinite dilution; xn = mol fraction of the nth substance listed. The note with it: 101 kPa, Liquid, Chromatography, x1 = 0.

Consider `C1CCCCC1` [cyclohexane] + CCCCCCOCn1cc[n+](COCCCCCC)c1.O=S(=O)([N-]S(=O)(=O)C(F)(F)F)C(F)(F)F, for which the activity coefficient was 2.32 ± 0.16 (298.15 K); 2.22 ± 0.15 (308.15 K); 2.15 ± 0.15 (318.15 K); 2.08 ± 0.14 (328.15 K); 2.01 ± 0.14 (338.15 K); 1.94 ± 0.13 (348.15 K). Also, the activity coefficient runs as follows: (358.15 K) 1.89 ± 0.13; (368.15 K) 1.84 ± 0.12.

Regarding `C1CCCCCCC1` [cyclooctane] + CCCCCCOCn1cc[n+](C)c1.O=S(=O)([N-]S(=O)(=O)C(F)(F)F)C(F)(F)F, the activity coefficient stood at 8.12 ± 0.55 (298.15 K); 7.57 ± 0.52 (308.15 K); 7.11 ± 0.48 (318.15 K); 6.74 ± 0.46 (328.15 K); 6.35 ± 0.43 (338.15 K); 6.06 ± 0.41 (348.15 K). Besides, the activity coefficient came to 5.75 ± 0.39 (358.15 K) and 5.48 ± 0.37 (368.15 K).

On to `C1CCCCCCC1` [cyclooctane] + CCCCCCOCn1cc[n+](COCCCCCC)c1.O=S(=O)([N-]S(=O)(=O)C(F)(F)F)C(F)(F)F, for which the activity coefficient came out at 3.2 ± 0.22 (298.15 K); 3.06 ± 0.21 (308.15 K); 2.94 ± 0.2 (318.15 K); 2.82 ± 0.19 (328.15 K); 2.72 ± 0.19 (338.15 K); 2.63 ± 0.18 (348.15 K). In addition, the activity coefficient stood at 2.54 ± 0.17 (358.15 K) and 2.47 ± 0.17 (368.15 K).

Regarding `C1CCCC1` [cyclopentane] + CCCCCCOCn1cc[n+](C)c1.O=S(=O)([N-]S(=O)(=O)C(F)(F)F)C(F)(F)F, the activity coefficient was found to be 4.19 ± 0.29 (298.15 K); 3.99 ± 0.27 (308.15 K); 3.82 ± 0.26 (318.15 K); 3.66 ± 0.25 (328.15 K); 3.51 ± 0.24 (338.15 K); 3.38 ± 0.23 (348.15 K). Moreover, the activity coefficient came out at 3.27 ± 0.22 (358.15 K) and 3.16 ± 0.22 (368.15 K).

On to `C1CCCC1` [cyclopentane] + CCCCCCOCn1cc[n+](COCCCCCC)c1.O=S(=O)([N-]S(=O)(=O)C(F)(F)F)C(F)(F)F, for which the activity coefficient is, setting by setting: (298.15 K) 1.84 ± 0.12; (308.15 K) 1.78 ± 0.12; (318.15 K) 1.74 ± 0.12; (328.15 K) 1.69 ± 0.11; (338.15 K) 1.65 ± 0.11; (348.15 K) 1.61 ± 0.11. Also, the activity coefficient is, setting by setting: (358.15 K) 1.57 ± 0.1; (368.15 K) 1.54 ± 0.1.

As to `CCCCCCCCCC` [decane] + CCCCCCOCn1cc[n+](C)c1.O=S(=O)([N-]S(=O)(=O)C(F)(F)F)C(F)(F)F, the activity coefficient was 23.5 ± 1.6 (298.15 K); 21.7 ± 1.5 (308.15 K); 20.2 ± 1.4 (318.15 K); 18.9 ± 1.3 (328.15 K); 17.7 ± 1.2 (338.15 K); 16.7 ± 1.1 (348.15 K). In addition, the activity coefficient came out at 15.8 ± 1.1 (358.15 K) and 14.9 ± 1 (368.15 K).

For `CCCCCCCCCC` [decane] + CCCCCCOCn1cc[n+](COCCCCCC)c1.O=S(=O)([N-]S(=O)(=O)C(F)(F)F)C(F)(F)F, the activity coefficient runs as follows: (298.15 K) 7.38 ± 0.5; (308.15 K) 7 ± 0.48; (318.15 K) 6.66 ± 0.45; (328.15 K) 6.38 ± 0.43; (338.15 K) 6.11 ± 0.42; (348.15 K) 5.87 ± 0.4. For the same molecule, the activity coefficient runs as follows: (358.15 K) 5.65 ± 0.39; (368.15 K) 5.46 ± 0.37.

Regarding `CCOCC` [diethyl ether] + CCCCCCOCn1cc[n+](C)c1.O=S(=O)([N-]S(=O)(=O)C(F)(F)F)C(F)(F)F, the activity coefficient reads like this: (298.15 K) 1.35 ± 0.09; (308.15 K) 1.37 ± 0.09; (318.15 K) 1.38 ± 0.09; (328.15 K) 1.4 ± 0.09; (338.15 K) 1.41 ± 0.09; (348.15 K) 1.43 ± 0.09. Further, the activity coefficient (358.15 K) was determined as 1.44 ± 0.09 and the activity coefficient (368.15 K) turned out to be 1.45 ± 0.1.

On to `CCOCC` [diethyl ether] + CCCCCCOCn1cc[n+](COCCCCCC)c1.O=S(=O)([N-]S(=O)(=O)C(F)(F)F)C(F)(F)F, for which the activity coefficient runs as follows: (298.15 K) 0.811 ± 0.052; (308.15 K) 0.826 ± 0.053; (318.15 K) 0.839 ± 0.054; (328.15 K) 0.854 ± 0.055; (338.15 K) 0.867 ± 0.055; (348.15 K) 0.879 ± 0.056. For the same molecule, the activity coefficient is, setting by setting: (358.15 K) 0.89 ± 0.057; (368.15 K) 0.904 ± 0.057.

Turning to `CCCOCCC` [dipropyl ether] + CCCCCCOCn1cc[n+](C)c1.O=S(=O)([N-]S(=O)(=O)C(F)(F)F)C(F)(F)F, the activity coefficient runs as follows: (298.15 K) 2.92 ± 0.2; (308.15 K) 2.89 ± 0.2; (318.15 K) 2.87 ± 0.2; (328.15 K) 2.85 ± 0.19; (338.15 K) 2.83 ± 0.19; (348.15 K) 2.81 ± 0.19. The activity coefficient is, setting by setting: (358.15 K) 2.79 ± 0.19; (368.15 K) 2.77 ± 0.19.

`CCCOCCC` [dipropyl ether] + CCCCCCOCn1cc[n+](COCCCCCC)c1.O=S(=O)([N-]S(=O)(=O)C(F)(F)F)C(F)(F)F: the activity coefficient was 1.49 ± 0.098 (298.15 K); 1.49 ± 0.098 (308.15 K); 1.49 ± 0.098 (318.15 K); 1.5 ± 0.098 (328.15 K); 1.5 ± 0.099 (338.15 K); 1.5 ± 0.099 (348.15 K). Further, the activity coefficient (358.15 K) came out at 1.5 ± 0.099 and the activity coefficient (368.15 K) was 1.5 ± 0.099.

`CCO` [ethanol] + CCCCCCOCn1cc[n+](C)c1.O=S(=O)([N-]S(=O)(=O)C(F)(F)F)C(F)(F)F: the activity coefficient reads like this: (298.15 K) 1.59 ± 0.11; (308.15 K) 1.44 ± 0.09; (318.15 K) 1.31 ± 0.09; (328.15 K) 1.2 ± 0.08; (338.15 K) 1.1 ± 0.07; (348.15 K) 1.03 ± 0.06. In addition, the activity coefficient was 0.952 ± 0.06 (358.15 K) and 0.891 ± 0.057 (368.15 K).

For `CCO` [ethanol] + CCCCCCOCn1cc[n+](COCCCCCC)c1.O=S(=O)([N-]S(=O)(=O)C(F)(F)F)C(F)(F)F, the activity coefficient was found to be 1.25 ± 0.08 (298.15 K); 1.14 ± 0.07 (308.15 K); 1.04 ± 0.065 (318.15 K); 0.958 ± 0.06 (328.15 K); 0.886 ± 0.056 (338.15 K); 0.824 ± 0.053 (348.15 K). The activity coefficient by setting is: (358.15 K) 0.767 ± 0.05; (368.15 K) 0.719 ± 0.048.

Take `CCc1ccccc1` [ethylbenzene] + CCCCCCOCn1cc[n+](C)c1.O=S(=O)([N-]S(=O)(=O)C(F)(F)F)C(F)(F)F: the activity coefficient (308.15 K) came to 1.49 ± 0.098; the activity coefficient (318.15 K) was 1.49 ± 0.098; the activity coefficient (328.15 K) amounted to 1.49 ± 0.098; the activity coefficient (338.15 K) is 1.5 ± 0.098; the activity coefficient (348.15 K) is 1.5 ± 0.099; the activity coefficient (358.15 K) was 1.5 ± 0.099. The activity coefficient (368.15 K) came out at 1.5 ± 0.099.

`CCc1ccccc1` [ethylbenzene] + CCCCCCOCn1cc[n+](COCCCCCC)c1.O=S(=O)([N-]S(=O)(=O)C(F)(F)F)C(F)(F)F: the activity coefficient by setting is: (298.15 K) 0.967 ± 0.061; (308.15 K) 0.966 ± 0.061; (318.15 K) 0.965 ± 0.061; (328.15 K) 0.964 ± 0.061; (338.15 K) 0.963 ± 0.061; (348.15 K) 0.963 ± 0.061. The activity coefficient (358.15 K) worked out at 0.962 ± 0.06.

Turning to `CCCCCCC` [heptane] + CCCCCCOCn1cc[n+](C)c1.O=S(=O)([N-]S(=O)(=O)C(F)(F)F)C(F)(F)F, the activity coefficient runs as follows: (298.15 K) 10.6 ± 0.7; (308.15 K) 10 ± 0.7; (318.15 K) 9.51 ± 0.65; (328.15 K) 9.07 ± 0.62; (338.15 K) 8.65 ± 0.59; (348.15 K) 8.28 ± 0.56. Further, the activity coefficient is, setting by setting: (358.15 K) 7.95 ± 0.54; (368.15 K) 7.66 ± 0.52.

On to `CCCCCCC` [heptane] + CCCCCCOCn1cc[n+](COCCCCCC)c1.O=S(=O)([N-]S(=O)(=O)C(F)(F)F)C(F)(F)F, for which the activity coefficient by setting is: (298.15 K) 3.94 ± 0.27; (308.15 K) 3.81 ± 0.26; (318.15 K) 3.68 ± 0.25; (328.15 K) 3.57 ± 0.24; (338.15 K) 3.46 ± 0.24; (348.15 K) 3.36 ± 0.23. For the same molecule, the activity coefficient is 3.27 ± 0.22 (358.15 K) and 3.19 ± 0.22 (368.15 K).

In the case of `C=CCCCC` [hex-1-ene] + CCCCCCOCn1cc[n+](C)c1.O=S(=O)([N-]S(=O)(=O)C(F)(F)F)C(F)(F)F, the activity coefficient reads like this: (298.15 K) 4.89 ± 0.33; (308.15 K) 4.72 ± 0.32; (318.15 K) 4.59 ± 0.31; (328.15 K) 4.46 ± 0.3; (338.15 K) 4.33 ± 0.29; (348.15 K) 4.23 ± 0.29. The activity coefficient runs as follows: (358.15 K) 4.12 ± 0.28; (368.15 K) 4.03 ± 0.27.

As for `C=CCCCC` [hex-1-ene] + CCCCCCOCn1cc[n+](COCCCCCC)c1.O=S(=O)([N-]S(=O)(=O)C(F)(F)F)C(F)(F)F, the activity coefficient runs as follows: (298.15 K) 2.25 ± 0.15; (308.15 K) 2.2 ± 0.15; (318.15 K) 2.15 ± 0.15; (328.15 K) 2.11 ± 0.14; (338.15 K) 2.07 ± 0.14; (348.15 K) 2.04 ± 0.14. For the same molecule, the activity coefficient runs as follows: (358.15 K) 2.01 ± 0.14; (368.15 K) 1.97 ± 0.13.

Turning to `CCCCCC` [hexane] + CCCCCCOCn1cc[n+](C)c1.O=S(=O)([N-]S(=O)(=O)C(F)(F)F)C(F)(F)F, the activity coefficient runs as follows: (298.15 K) 8.36 ± 0.57; (308.15 K) 7.96 ± 0.54; (318.15 K) 7.59 ± 0.52; (328.15 K) 7.27 ± 0.5; (338.15 K) 6.98 ± 0.48; (348.15 K) 6.71 ± 0.46. Further, the activity coefficient is, setting by setting: (358.15 K) 6.46 ± 0.44; (368.15 K) 6.24 ± 0.43.
